# Laboratory results reported in patent publication US20260376311A1, “Subject selection for 11B-HSD1 inhibitor treatment” (ACTINOGEN MEDICAL LIMITED, priority 2022, published 2026).
# Legend:
# [1] = Clinical Dementia Rating Scale-Sum of Boxes (CDR-SB), Phase II placebo-controlled study, Biomarker Extension Study; assay type: in vivo, human; conditions: 12 weeks
# Description: (§1) A Phase II, Double-Blind, 12-Week, Randomised, Placebo-Controlled Study was conducted to Assess the Safety, Tolerability and Efficacy of Xanamem™ in Subjects with Mild Dementia due to Alzheimer's Disease (AD).
# (§2) Study Design: This is a Phase II, randomized, multi-centre, double-blind, placebo-controlled, proof-of-concept study to assess the safety, tolerability and efficacy of oral Xanamem™ QD in adult subjects with mild dementia due to AD.
# (§3) At the Baseline visit (Week 0), eligible subjects will be randomised on a 1:1 ratio to receive either 10 mg Xanamem™ administered orally, QD (treatment group) or matching placebo (placebo group). Subjects returned to the study site for the Interim visits (Week 4 and Week 8), EOT (Week 12) and Follow-up (4 weeks post last dose of study drug) visits, at which study assessments were performed.
# (§4) Xanamem™ is formulated in green and cream-coloured size 3, Coni-Snap shaped gelatin capsules as an excipient blend at a dose of 10 mg (see Table 1). The dose of Xanamen™ will be 10 mg administered orally, QD.
# The Washington University CDR is a global assessment instrument that yields global and SOB scores, with the global score regularly used in clinical and research settings to stage dementia severity. The CDR-SOB score has been considered a more detailed quantitative general index than the global score and provides more information than the global CDR score in participants with mild dementia. CDR Global results are relevant for subject eligibility and thus will also be performed at the Screening visit.
# The CDR is obtained through semi-structured interviews of patients and informants, and cognitive functioning is rated in six domains of functioning: memory, orientation, judgement and problem solving, community affairs, home and hobbies, and personal care. Each domain is rated on a five-point scale of functioning as follows: 0, no impairment; 0.5, questionable impairment; 1, mild impairment; 2, moderate impairment; and 3, severe impairment.
# The global CDR score is computed via an algorithm. CDR Global score is calculated using the Washington University online algorithm. The CDR-SOB is based on summing each of the domain box scores, with scores ranging from 0-18.
# (§5) A Non-interventional Biomarker Analysis Extension Protocol study was conducted for Participants who were previously enrolled in the above described Phase II, Double-Blind, 12-Week, Randomised, Placebo-Controlled Study to Assess the Safety, Tolerability and Efficacy of Xanamem™ in Subjects with Mild Dementia due to Alzheimer's Disease (AD). The objectives for study were: • 1. To analyze the levels of biomarkers of Alzheimer's Disease (AD) proteins, neurodegeneration, and neuro-inflammation in stored plasma samples from participants with mild dementia due to AD enrolled in the previous clinical trial (at baseline and Week 12 and their change from baseline for each treatment) • 2. To examine the change from baseline in biomarkers by treatment group to Week 12 by baseline pTau181 quartile categorization/level • 3. To explore the efficacy of Xanamem in relationship to quartiles categorization/level of pTau181 levels at baseline • 4. To correlate the changes from baseline in biomarkers by treatment with changes in cognitive endpoints
# From above described clinical study, the extant blood samples of 72 patients were subjected to further disease biomarker analysis. A biomarker laboratory (blinded to treatment assignment), analyzed those blood samples to determine the biomarker variable pTau181. […]
# [2] = Mini-Mental Status Examination (MMSE), Phase II placebo-controlled study, Biomarker Extension Study; assay type: in vivo, human
# Description: as §1, §2, §3, §4
# The MMSE is a 30-point questionnaire that is used extensively in clinical and research settings to measure cognitive impairment and is commonly used in medicine and allied health to screen for dementia. It is also used to estimate the severity and progression of cognitive impairment and to follow the course of cognitive changes in an individual over time; thus making it an effective way to document a participant's response to treatment. For this study, MMSE results are relevant for subject eligibility and performed at Screening visit.
# as §5
# (§6) From above described clinical study, the extant blood samples of 72 patients were subjected to further disease biomarker analysis. A biomarker laboratory (blinded to treatment assignment), analyzed those blood samples to determine the biomarker variable pTau181.
# An analysis of overall efficacy was undertaken of the population (n=72).
# (§7) For the cognitive efficacy variables (CDR-SB and MMSE), change from baseline to Week 12 was analyzed by ANCOVA with the following models: • treatment as fixed effect and baseline cognitive efficacy value as covariate; • treatment, baseline p-Tau181 (low/high) category, and treatment-by-baseline p-Tau181 (low/high) category as fixed effects, and baseline cognitive efficacy value as covariate; • treatment, baseline p-Tau181 (≤10.2 pg/mL/>10.2 pg/mL) category, and treatment-by-baseline p-Tau181 (≤10.2 pg/mL/>10.2 pg/mL) category as fixed effects, and baseline cognitive efficacy value as covariate; and • treatment, baseline MMSE (less severe (≥24)/more severe (≤23)) category, and treatment-by-baseline MMSE (less severe (≥24)/more severe (≤23)) category as fixed effects, and baseline cognitive efficacy value as covariate.
# pTau181 = assay: Biomarker analysis of plasma pTau181, Biomarker Extension Study; assay type: in vivo, human; conditions: 10 mg QD
# Description: as §5, §6
# as §7, with “biomarker p-Tau181,” for “cognitive efficacy variables (CDR-SB and MMSE),”, “were” for “was”, “biomarker” for “cognitive efficacy”
# [3] = Pharmacokinetics of Xanamem (Phase I peak concentrations; fed/fasted bioavailability); assay type: in vivo, human; conditions: oral; with meals vs fasted; in words
# [4] = Safety of drug intake when fasted; assay type: in vivo, human; conditions: oral, in words
# [5] = comparison with Xanamem treatment effect; cited from earlier work
# [6] = 10 mg QD oral, pTau >6.74 pg/mL subgroup, N = 34
# [7] = 10 mg QD oral, pTau > 10.2 pg/mL, N = 9
# [8] = 10 mg QD oral, pTau ≤ 10.2 pg/mL, N = 59
# [9] = Xanamem vs placebo, pTau>6.74 pg/mL subgroup, 10 mg QD
# [10] = 10 mg QD oral, 12 weeks, baseline MMSE 20-23, N = 46
# [11] = 10 mg QD oral, 12 weeks, baseline MMSE 24-26, N = 26
# [12] = baseline to Week 12, sample size 28 and 26
compound,measurement,setting,value
"O=C(c1csc(-c2cn[nH]c2)c1)N1[C@@H]2CC[C@H]1C[C@](O)(c1ncccn1)C2 [Xanamem, (5-(1H-Pyrazol-4-yl)thiophen-3-yl)(3-hydroxy-3-(pyrimidin-2-yl)-8-azabicyclo[3.2.1]octan-8-yl)methanone]","CDR-SB change, pTau pg/mL > 10.2 (median)","[1]; 10 mg QD oral, N = 9, desired change down, placebo 0.5",−0.3
same,"CDR-SB change, pTau pg/mL > 10.2 (mean)","[1]; 10 mg QD oral, N = 9, desired change down, placebo 0.8",0.1
same,"CDR-SB change, pTau units ≤ 6.74 (median)","[1]; 10 mg QD oral, N = 34, desired change down, placebo 0.0",0.0
same,"CDR-SB change, pTau > 6.74 pg/mL (median)","[1]; 10 mg QD oral, N = 34, desired change down, placebo 0.8",0.0
same,"CDR-SB change, pTau > 6.74 pg/mL (mean)","[1]; 10 mg QD oral, N = 34, desired change down, placebo 1.0",0.4
same,"CDR-SB change, pTau units ≤ 6.74 (mean)","[1]; 10 mg QD oral, N = 34, desired change down, placebo −0.1",0.5
same,"CDR-SB change, pTau ≤ 10.2 pg/mL (median)","[1]; 10 mg QD oral, N = 59, desired change down, placebo 0.0",0.0
same,"CDR-SB change, pTau ≤ 10.2 pg/mL (mean)","[1]; 10 mg QD oral, N = 59, desired change down, placebo 0.4",0.5
same,"Cohen's d for CDR-SB (mean), Xanamem vs placebo",[1]; [6],0.41
same,"p value for CDR-SB (mean), Xanamem vs placebo",[1]; [6],0.09
same,"CDR-SB units (median), change","[1]; 10 mg QD oral, pTau >6.74 pg/mL subgroup, Xanamem n = 16, desired change down, placebo 0.8",0.0 CDR-SB units
same,"CDR-SB units (mean), change","[1]; 10 mg QD oral, pTau >6.74 pg/mL subgroup, Xanamem n = 16, desired change down, placebo 1.0",0.4 CDR-SB units
same,"Cohen's d for CDR-SB (mean), Xanamem vs placebo",[1]; [7],0.62
same,"p value for CDR-SB (mean), Xanamem vs placebo",[1]; [7],0.33
same,"Cohen's d for CDR-SB (mean), Xanamem vs placebo","[1]; 10 mg QD oral, pTau units ≤ 6.74, N = 34",0.40
same,"p value for CDR-SB (mean), Xanamem vs placebo","[1]; 10 mg QD oral, pTau ≤ 6.74 pg/mL, N = 34",0.08
same,"Cohen's d for CDR-SB (mean), Xanamem vs placebo",[1]; [8],−0.06
same,"p value for CDR-SB (mean), Xanamem vs placebo",[1]; [8],0.78
same,"treatment effect on CDR-SB, mean",[1]; [9],0.6 points
same,"treatment effect on CDR-SB, median",[1]; [9],0.8 points
same,"Cohen's d for MMSE (mean), Xanamem vs placebo",[2]; [10],0.93
same,"p value for MMSE (mean), Xanamem vs placebo",[2]; [10],0.02
same,"MMSE change, MMSE 20-23 (mean)","[2]; 10 mg QD oral, 12 weeks, baseline MMSE 20-23, N = 46, desired change up, placebo −0.3",1.7
same,"MMSE change, MMSE 20-23 (median)","[2]; 10 mg QD oral, 12 weeks, baseline MMSE 20-23, N = 46, desired change up, placebo −1.0",2.0
same,"Cohen's d for MMSE (mean), Xanamem vs placebo",[2]; [11],−0.17
same,"p value for MMSE (mean), Xanamem vs placebo",[2]; [11],0.88
same,"MMSE change, MMSE 24-26 (median)","[2]; 10 mg QD oral, 12 weeks, baseline MMSE 24-26, N = 26, desired change up, placebo −1.0",−1.0
same,"MMSE change, MMSE 24-26 (mean)","[2]; 10 mg QD oral, 12 weeks, baseline MMSE 24-26, N = 26, desired change up, placebo −1.4",−1.5
same,"Cohen's d for MMSE, Xanamem over placebo","[2]; overall population n=72, 10 mg QD",0.35
same,increase in the mean MMSE score,"[2]; overall population n=72, Xanamem n=37, 10 mg QD, placebo (n=35) decrease of 0.6",0.3
same,change in biomarker pTau181 from baseline to Week 12,"pTau181; sample size 28 (Xanamem) and 26 (placebo), placebo −8.59",−2.37
same,treatment trend in change of pTau181,"pTau181; baseline to Week 12, in words",no treatment trend was observed
same,"Cohen's d for change in pTau181, Xanamem vs placebo",pTau181; [12],0.08
same,"p for change in pTau181, Xanamem vs placebo",pTau181; [12],0.40
same,bioavailability in fed state,[3],higher bioavailability observed when taken in a fed state
same,safety of drug intake when fasted,[4],no safety concern
CC12CC3CC(C)(C1)CC(N)(C3)C2 [memantine],Cohen's d of approved oral anticholinesterases or memantine,[5],0.2-0.3
